Results from patent publication US8680290B2, “Isoxazoline derivatives and their use as herbicides” (Syngenta Limited, priority 2004, dated 2014).

Test system: Monocotyledonous and dicotyledonous test plants
Test: Example B1 herbicidal action, application pre-emergence (Table B1b)
Format: in vivo
Details: 250 g/ha, evaluated after 4 weeks
Method: Monocotyledonous and dicotyledonous test plants were sown in seed trays in standard soil. Immediately after sowing (pre-emergence) or after 8 to 9 days cultivation (post-emergence), the test compounds were applied by spraying in the form of an aqueous solution derived from the formulation of the technical active ingredient in 0.6 ml acetone and 45 ml formulation solution containing 10.6% Emulsogen EL (CAS RN 61791-12-6), 42.2% N-methylpyrrolidone, 42.2% dipropylene glycol monomethyl ether (CAS RN 34590-94-8) and 0.2% X-77 (CAS RN 11097-66-8). The test plants were then grown in a greenhouse under optimum conditions. After a test duration of 3 weeks (post-emergence) or 4 weeks (pre-emergence), the test was evaluated (10=total damage to plant, 0=no damage to plant).

| Compound | herbicidal action (damage rating 0-10), Amaranthus | herbicidal action (damage rating 0-10), Digitaria | herbicidal action (damage rating 0-10), Panicum | herbicidal action (damage rating 0-10), Setaria | herbicidal action (damage rating 0-10), Sida |
| --- | --- | --- | --- | --- | --- |
| CCC(Cl)(c1c(F)cccc1F)S(=O)(=O)C1=NOC(C)(C)C1 (stereo not shown) [1.16] | 0 | 4 | 5 | 4 | 0 |
| CC1(C)CC(S(=O)(=O)C(Cl)c2c(F)cccc2C(F)(F)F)=NO1 (racemic) [1.91] | 3 | 10 |  | 9 | 10 |
| COc1ccccc1C(Cl)S(=O)(=O)C1=NOC(C)(C)C1 (stereo not shown) [1.141] | 5 | 9 | 9 | 9 | 0 |
| CC1(C)CC([S+]([O-])C(c2c(F)cccc2F)C(F)(F)F)=NO1 (stereo not shown) [1.139] | 0 | 8 | 0 | 7 | 0 |
| CCOc1c(C(F)(F)S(=O)(=O)C2=NOC(C)(C)C2)c(C(F)(F)F)nn1C [2.17] | 10 | 8 | 8 | 8 | 5 |
| CC1(C)CC(S(=O)(=O)C(Br)c2ccccc2)=NO1 (racemic) [1.81] | 9 | 6 | 8 | 5 | 0 |
| CC1(C)CC([S+]([O-])C(Cl)c2c(F)cccc2Cl)=NO1 (single isomer, unassigned) [1.33] | 0 | 8 | 10 | 7 | 0 |
| COc1ccccc1C(Br)S(=O)(=O)C1=NOC(C)(C)C1 (stereo not shown) [1.101] | 9 | 8 | 8 | 8 | 0 |
| Cc1nsc(C#N)c1C(F)(F)S(=O)(=O)C1=NOC(C)(C)C1 [Compound No. 3.02, 4-[(5,5-dimethyl-4,5-dihydroisoxazole-3-sulfonyl)-difluoro-methyl]-3-methyl-isothiazole-5-carbonitrile] | 7 | 10 | 10 | 10 | 0 |
| C=C(OC(C)=O)C(Cl)(c1c(F)cccc1F)S(=O)(=O)C1=NOC(C)(C)C1 (stereo not shown) [Compound No. 1.58] | 5 | 8 | 9 | 7 | 3 |
| COc1cc(C(Cl)S(=O)(=O)C2=NOC(C)(C)C2)on1 (stereo not shown) [Compound No. 5.01, 5-[chloro-(5,5-dimethyl-4,5-dihydroisoxazole-3-sulfonyl)-methyl]-3-methoxy-isoxazole] | 0 | 8 |  | 8 | 2 |
| CC1(C)CC(S(=O)(=O)C(Br)c2cc(F)cc3c2OCOC3)=NO1 (stereo not shown) [1.103] | 3 | 9 | 9 | 5 | 0 |
| CC1(C)CC(S(=O)(=O)C(Br)c2ccccc2OC(F)F)=NO1 (racemic) [1.78] | 10 | 10 | 10 | 10 | 2 |
| CC1(C)CC(S(=O)(=O)C(C(=O)C2CC2)c2c(F)cccc2F)=NO1 (stereo not shown) [Compound No. 1.54] | 0 | 8 | 8 | 8 | 0 |
| CC(=O)OC(C)=C(c1c(C(F)(F)F)nn(C)c1OCC(F)(F)F)S(=O)(=O)C1=NOC(C)(C)C1 [2.32] | 7 | 4 | 7 | 4 | 0 |
| Cc1noc(C)c1C(Cl)S(=O)(=O)C1=NOC(C)(C)C1 (stereo not shown) [Compound No. 3.03] | 7 | 9 | 10 | 10 | 0 |
| CC1(C)CC(S(=O)(=O)C(C(=O)C(F)F)c2c(F)cccc2F)=NO1 (stereo not shown) [Compound No. 1.57] | 9 | 8 | 10 | 8 | 6 |
| CC1(C)CC(S(=O)(=O)C(Cn2cncn2)c2c(F)cccc2F)=NO1 (racemic) [Compound No. 1.90] | 4 | 4 | 0 | 0 | 5 |
| CC(=O)O/C(C)=C(/c1c(F)cccc1F)S(=O)(=O)C1=NOC(C)(C)C1 [Compound No. 1.98, acetic acid 2-(2,6-difluoro-phenyl)-2-(5,5-dimethyl-4,5-dihydroisoxazole-3-sulfonyl)-1-methyl-vinyl ester] | 7 | 8 | 9 | 9 | 4 |
| COc1c(C(F)(F)S(=O)(=O)C2=NOC(C)(C)C2)c(C(F)(F)F)nn1C [Compound No. 2.23, 3-[difluoro-(5-methoxy-1-methyl-3-trifluoromethyl-1H-pyrazol-4-yl)-methanesulfonyl]-5,5-dimethyl-4,5-dihydroisoxazole] | 8 | 7 | 8 | 9 | 3 |
| CC1(C)CC(S(=O)(=O)C(CC=C(F)F)c2c(F)cccc2F)=NO1 (stereo not shown) [Compound No. 1.04] | 0 | 7 | 5 | 2 | 0 |
| CC1(C)CC(S(=O)(=O)C(C(=O)CCl)c2c(F)cccc2F)=NO1 (stereo not shown) [Compound No. 1.60] | 7 | 9 | 10 | 9 | 0 |
| CC1(C)CC(S(=O)(=O)C(F)c2cc(F)cc3c2OCOC3)=NO1 (stereo not shown) [1.106] | 3 | 7 | 8 | 6 | 0 |
| COc1cc(OC)cc(C(Br)S(=O)(=O)C2=NOC(C)(C)C2)c1 (racemic) [1.84] | 10 | 9 | 10 | 9 | 0 |
| Cc1cc(C(F)(F)S(=O)(=O)C2=NOC(C)(C)C2)no1 [4.03] | 9 | 10 |  | 10 | 7 |
| CC1(C)CC(S(=O)(=O)C(Br)c2cc(F)ccc2F)=NO1 (stereo not shown) [1.135] | 7 | 10 | 10 | 9 | 0 |
| Cn1nc(C(F)(F)F)c(C([S+]([O-])C2=NOC(C)(C)C2)C(F)(F)F)c1OCC(F)(F)F (stereo not shown) [Compound No. 2.35, 5,5-dimethyl-3-{2,2,2-trifluoro-1-[1-methyl-5-(2,2,2-trifluoro-ethoxy)-3-trifluoromethyl-1H-pyrazol-4-yl]-ethanesulfinyl}-4,5-dihydro-isoxazole] | 10 | 10 | 9 | 5 | 0 |
| CC(=O)C(c1c(C(F)(F)F)nn(C)c1OCC(F)(F)F)S(=O)(=O)C1=NOC(C)(C)C1 (stereo not shown) [2.08] | 4 | 2 | 9 |  | 2 |
